Results: ChEMBL document CHEMBL2057203, “Synthesis and evaluation of novel F-18 labeled 4-aminoquinazoline derivatives: potential PET imaging agents for tumor detection” (Bioorg Med Chem Lett, 2012)

Experiments:
Heart [1] = assay: Biodistribution in S180 tumor-bearing mouse heart at 8 to 10 uCi, iv after 60 mins by gamma counting; format: ADME, organism-based; settings: in vivo, 1 h
Mus musculus [2] = assay: Biodistribution in S180 cells xenografted in mouse tumor at 8 to 10 uCi, iv after 120 mins by gamma counting; format: ADME, organism-based, Neoplasm, CCRF S-180; settings: in vivo, 2 h
Nucleic Acid [3] = assay: Ratio of drug level in tumor to brain in S180 tumor-bearing mouse at 8 to 10 uCi, iv at 120 mins by gamma counting; format: ADME, organism-based; settings: in vivo, 2 h
Spleen [4] = assay: Biodistribution in S180 tumor-bearing mouse spleen at 8 to 10 uCi, iv after 120 mins by gamma counting; format: ADME, organism-based; settings: in vivo, 2 h
Kidney [5] = assay: Biodistribution in S180 tumor-bearing mouse kidney at 8 to 10 uCi, iv after 60 mins by gamma counting; format: ADME, organism-based; settings: in vivo, 1 h
Kidney [6] = assay: Biodistribution in S180 tumor-bearing mouse kidneys at 8 to 10 uCi, iv after 5 mins by gamma counting; format: ADME, organism-based; settings: in vivo
Nucleic Acid [7] = assay: Ratio of drug level in tumor to muscle in S180 tumor-bearing mouse at 8 to 10 uCi, iv at 5 mins by gamma counting; format: ADME, organism-based; settings: in vivo
Heart [8] = assay: Biodistribution in S180 tumor-bearing mouse heart at 8 to 10 uCi, iv after 5 mins by gamma counting; format: ADME, organism-based; settings: in vivo
Muscle tissue [9] = assay: Biodistribution in S180 tumor-bearing mouse muscle at 8 to 10 uCi, iv after 120 mins by gamma counting; format: ADME, organism-based; settings: in vivo, 2 h
Lung [10] = assay: Biodistribution in S180 tumor-bearing mouse lungs at 8 to 10 uCi, iv after 5 mins by gamma counting; format: ADME, organism-based; settings: in vivo
Nucleic Acid [11] = assay: Ratio of drug level in tumor to brain in S180 tumor-bearing mouse at 8 to 10 uCi, iv at 5 mins by gamma counting; format: ADME, organism-based; settings: in vivo
Kidney [12] = assay: Biodistribution in S180 tumor-bearing mouse kidney at 8 to 10 uCi, iv after 30 mins by gamma counting; format: ADME, organism-based; settings: in vivo, 0.5 h
Blood [13] = assay: Biodistribution in S180 tumor-bearing mouse blood at 8 to 10 uCi, iv after 120 mins by gamma counting; format: ADME, organism-based; settings: in vivo, 2 h
Brain [14] = assay: Biodistribution in S180 tumor-bearing mouse brain at 8 to 10 uCi, iv after 60 mins by gamma counting; format: ADME, organism-based; settings: in vivo, 1 h
Spleen [15] = assay: Biodistribution in S180 tumor-bearing mouse spleen at 8 to 10 uCi, iv after 60 mins by gamma counting; format: ADME, organism-based; settings: in vivo, 1 h
Lung [16] = assay: Biodistribution in S180 tumor-bearing mouse lung at 8 to 10 uCi, iv after 120 mins by gamma counting; format: ADME, organism-based; settings: in vivo, 2 h
Lung [17] = assay: Biodistribution in S180 tumor-bearing mouse lung at 8 to 10 uCi, iv after 60 mins by gamma counting; format: ADME, organism-based; settings: in vivo, 1 h
Nucleic Acid [18] = assay: Ratio of drug level in tumor to muscle in S180 tumor-bearing mouse at 8 to 10 uCi, iv at 120 mins by gamma counting; format: ADME, organism-based; settings: in vivo, 2 h
Muscle tissue [19] = assay: Biodistribution in S180 tumor-bearing mouse muscle at 8 to 10 uCi, iv after 30 mins by gamma counting; format: ADME, organism-based; settings: in vivo, 0.5 h
Blood [20] = assay: Biodistribution in S180 tumor-bearing mouse blood at 8 to 10 uCi, iv after 30 mins by gamma counting; format: ADME, organism-based; settings: in vivo, 0.5 h
Kidney [21] = assay: Biodistribution in S180 tumor-bearing mouse kidney at 8 to 10 uCi, iv after 120 mins by gamma counting; format: ADME, organism-based; settings: in vivo, 2 h
Mus musculus [22] = assay: Biodistribution in S180 cells xenografted in mouse tumor at 8 to 10 uCi, iv after 5 mins by gamma counting; format: ADME, organism-based, Neoplasm, CCRF S-180; settings: in vivo
Brain [23] = assay: Biodistribution in S180 tumor-bearing mouse brain at 8 to 10 uCi, iv after 120 mins by gamma counting; format: ADME, organism-based; settings: in vivo, 2 h
Spleen [24] = assay: Biodistribution in S180 tumor-bearing mouse spleen at 8 to 10 uCi, iv after 5 mins by gamma counting; format: ADME, organism-based; settings: in vivo
Lung [25] = assay: Biodistribution in S180 tumor-bearing mouse lung at 8 to 10 uCi, iv after 30 mins by gamma counting; format: ADME, organism-based; settings: in vivo, 0.5 h
Liver [26] = assay: Biodistribution in S180 tumor-bearing mouse liver at 8 to 10 uCi, iv after 30 mins by gamma counting; format: ADME, organism-based; settings: in vivo, 0.5 h
Mus musculus [27] = assay: Biodistribution in S180 cells xenografted in mouse tumor at 8 to 10 uCi, iv after 60 mins by gamma counting; format: ADME, organism-based, Neoplasm, CCRF S-180; settings: in vivo, 1 h
Heart [28] = assay: Biodistribution in S180 tumor-bearing mouse heart at 8 to 10 uCi, iv after 120 mins by gamma counting; format: ADME, organism-based; settings: in vivo, 2 h
Stomach [29] = assay: Biodistribution in S180 tumor-bearing mouse stomach at 8 to 10 uCi, iv after 30 mins by gamma counting; format: ADME, organism-based; settings: in vivo, 0.5 h
Spleen [30] = assay: Biodistribution in S180 tumor-bearing mouse spleen at 8 to 10 uCi, iv after 30 mins by gamma counting; format: ADME, organism-based; settings: in vivo, 0.5 h
Plasma = assay: Metabolic stability in mouse plasma after 2 hrs by radio-HPLC analysis; format: ADME, cell-free
Liver [31] = assay: Biodistribution in S180 tumor-bearing mouse liver at 8 to 10 uCi, iv after 120 mins by gamma counting; format: ADME, organism-based; settings: in vivo, 2 h
Nucleic Acid [32] = assay: Ratio of drug level in tumor to brain in S180 tumor-bearing mouse at 8 to 10 uCi, iv at 30 mins by gamma counting; format: ADME, organism-based; settings: in vivo, 0.5 h
Blood [33] = assay: Biodistribution in S180 tumor-bearing mouse blood at 8 to 10 uCi, iv after 5 mins by gamma counting; format: ADME, organism-based; settings: in vivo
Mus musculus [34] = assay: Biodistribution in S180 cells xenografted in mouse tumor at 8 to 10 uCi, iv after 30 mins by gamma counting; format: ADME, organism-based, Neoplasm, CCRF S-180; settings: in vivo, 0.5 h
Nucleic Acid [35] = assay: Ratio of drug level in tumor to muscle in S180 tumor-bearing mouse at 8 to 10 uCi, iv at 30 mins by gamma counting; format: ADME, organism-based; settings: in vivo, 0.5 h
Muscle tissue [36] = assay: Biodistribution in S180 tumor-bearing mouse muscle at 8 to 10 uCi, iv after 5 mins by gamma counting; format: ADME, organism-based; settings: in vivo
Nucleic Acid [37] = assay: Ratio of drug level in tumor to brain in S180 tumor-bearing mouse at 8 to 10 uCi, iv at 60 mins by gamma counting; format: ADME, organism-based; settings: in vivo, 1 h
Nucleic Acid [38] = assay: Ratio of drug level in tumor to blood in S180 tumor-bearing mouse at 8 to 10 uCi, iv at 120 mins by gamma counting; format: ADME, organism-based; settings: tumour, 2 h
Nucleic Acid [39] = assay: Ratio of drug level in tumor to blood in S180 tumor-bearing mouse at 8 to 10 uCi, iv at 5 mins by gamma counting; format: ADME, organism-based; settings: tumour
Liver [40] = assay: Biodistribution in S180 tumor-bearing mouse liver at 8 to 10 uCi, iv after 5 mins by gamma counting; format: ADME, organism-based; settings: in vivo
[41] = n-octanol-PBS partition coefficient, logP of the compound; format: physicochemical
Liver [42] = assay: Biodistribution in S180 tumor-bearing mouse liver at 8 to 10 uCi, iv after 60 mins by gamma counting; format: ADME, organism-based; settings: in vivo, 1 h
Heart [43] = assay: Biodistribution in S180 tumor-bearing mouse heart at 8 to 10 uCi, iv after 30 mins by gamma counting; format: ADME, organism-based; settings: in vivo, 0.5 h
Nucleic Acid [44] = assay: Ratio of drug level in tumor to blood in S180 tumor-bearing mouse at 8 to 10 uCi, iv at 60 mins by gamma counting; format: ADME, organism-based; settings: tumour, 1 h
Stomach [45] = assay: Biodistribution in S180 tumor-bearing mouse stomach at 8 to 10 uCi, iv after 60 mins by gamma counting; format: ADME, organism-based; settings: in vivo, 1 h
Stomach [46] = assay: Biodistribution in S180 tumor-bearing mouse stomach at 8 to 10 uCi, iv after 120 mins by gamma counting; format: ADME, organism-based; settings: in vivo, 2 h
Muscle tissue [47] = assay: Biodistribution in S180 tumor-bearing mouse muscle at 8 to 10 uCi, iv after 60 mins by gamma counting; format: ADME, organism-based; settings: in vivo, 1 h
Stomach [48] = assay: Biodistribution in S180 tumor-bearing mouse stomach at 8 to 10 uCi, iv after 5 mins by gamma counting; format: ADME, organism-based; settings: in vivo
[49] = Chemical stability in PBS after 2 hrs by radio-HPLC analysis at 60 degC; format: physicochemical; settings: buffer
Blood [50] = assay: Biodistribution in S180 tumor-bearing mouse blood at 8 to 10 uCi, iv after 60 mins by gamma counting; format: ADME, organism-based; settings: in vivo, 1 h
[51] = Chemical stability in PBS after 2 hrs by radio-HPLC analysis at room temperature; format: physicochemical; settings: buffer
Brain [52] = assay: Biodistribution in S180 tumor-bearing mouse brain at 8 to 10 uCi, iv after 30 mins by gamma counting; format: ADME, organism-based; settings: in vivo, 0.5 h
Nucleic Acid [53] = assay: Ratio of drug level in tumor to blood in S180 tumor-bearing mouse at 8 to 10 uCi, iv at 30 mins by gamma counting; format: ADME, organism-based; settings: tumour, 0.5 h
Brain [54] = assay: Biodistribution in S180 tumor-bearing mouse brain at 8 to 10 uCi, iv after 5 mins by gamma counting; format: ADME, organism-based; settings: in vivo
Nucleic Acid [55] = assay: Ratio of drug level in tumor to muscle in S180 tumor-bearing mouse at 8 to 10 uCi, iv at 60 mins by gamma counting; format: ADME, organism-based; settings: in vivo, 1 h

`COc1cc2ncnc(Nc3ccc(F)c(Cl)c3)c2cc1OCC[18F]` gave a Drug uptake (Heart [1]) of 4.26 % ID/g, a Drug uptake (Mus musculus [2]) of 4.71 % ID/g and a Ratio (Nucleic Acid [3]) of 2.38. For the same molecule, the Drug uptake (Spleen [4]) was 2.39 % ID/g, the Drug uptake (Kidney [5]) was 3.99 % ID/g and the Drug uptake (Kidney [6]) was 14.25 % ID/g. The Ratio (Nucleic Acid [7]) was 0.37, the Drug uptake (Heart [8]) was 4.4 % ID/g and the Drug uptake (Muscle tissue [9]) was 1.74 % ID/g. For the same molecule, the Drug uptake (Lung [10]) was 4.6 % ID/g, the Ratio (Nucleic Acid [11]) was 0.95 and the Drug uptake (Kidney [12]) was 5.2 % ID/g. It also gave a Drug uptake (Blood [13]) of 3.61 % ID/g, a Drug uptake (Brain [14]) of 2.94 % ID/g and a Drug uptake (Spleen [15]) of 3.23 % ID/g. For the same molecule, the Drug uptake (Lung [16]) was 2.57 % ID/g, the Drug uptake (Lung [17]) was 3.75 % ID/g and the Ratio (Nucleic Acid [18]) was 2.71. It also gave a Drug uptake (Muscle tissue [19]) of 4.18 % ID/g, a Drug uptake (Blood [20]) of 5.85 % ID/g and a Drug uptake (Kidney [21]) of 2.23 % ID/g. The Drug uptake (Mus musculus [22]) was 1.87 % ID/g, the Drug uptake (Brain [23]) was 1.98 % ID/g and the Drug uptake (Spleen [24]) was 4.5 % ID/g. It also gave a Drug uptake (Lung [25]) of 4.57 % ID/g, a Drug uptake (Liver [26]) of 5.38 % ID/g and a Drug uptake (Mus musculus [27]) of 5.51 % ID/g. The Drug uptake (Heart [28]) was 2.52 % ID/g, the Drug uptake (Stomach [29]) was 11.87 % ID/g and the Drug uptake (Spleen [30]) was 3.67 % ID/g. The Stability (Plasma) was “Stable”, the Drug uptake (Liver [31]) was 2.58 % ID/g and the Ratio (Nucleic Acid [32]) was 1.84. It also gave a Drug uptake (Blood [33]) of 7 % ID/g, a Drug uptake (Mus musculus [34]) of 5.8 % ID/g and a Ratio (Nucleic Acid [35]) of 1.39. For the same molecule, the Drug uptake (Muscle tissue [36]) was 5.12 % ID/g, the Ratio (Nucleic Acid [37]) was 1.87 and the Ratio (Nucleic Acid [38]) was 1.3. For the same molecule, the Ratio (Nucleic Acid [39]) was 0.27, the Drug uptake (Liver [40]) was 11.34 % ID/g and the logP [41] was 0.39. It also gave a Drug uptake (Liver [42]) of 4.22 % ID/g, a Drug uptake (Heart [43]) of 5.02 % ID/g and a Ratio (Nucleic Acid [44]) of 1.09. It also gave a Drug uptake (Stomach [45]) of 4.44 % ID/g, a Drug uptake (Stomach [46]) of 3.64 % ID/g and a Drug uptake (Muscle tissue [47]) of 3.35 % ID/g. The Drug uptake (Stomach [48]) was 5.35 % ID/g, the Stability [49] was “Stable” and the Drug uptake (Blood [50]) was 5.07 % ID/g. For the same molecule, the Stability [51] was “Stable”, the Drug uptake (Brain [52]) was 3.15 % ID/g and the Ratio (Nucleic Acid [53]) was 0.99. It also gave a Drug uptake (Brain [54]) of 1.97 % ID/g and a Ratio (Nucleic Acid [55]) of 1.64.
